For series [1] the following is noted: cited from earlier work.
Series [2] is described as follows: In vivo biodistribution in naive male Sprague-Dawley rats. The following applies: rat; for Time at which regional differentiation remained apparent / Pituitary gland / Thalamus: male, Sprague-Dawley; for Time at which regional differentiation remained apparent / Pituitary gland / Thalamus / Clearance from whole brain after peak uptake: in vivo; for Whole brain uptake, peak: at the time of peak; for Regional differentiation between GABA-rich and GABA-poor regions of the brain: in vivo biodistribution; for Cerebellum / Hippocampus / Pons/Medulla / Pre-frontal cortex / Striatum: lateral tail vein, mean (SD), n = 3; for Pre-frontal cortex: thalmus: ratio. As for the experimental part:
Adult male Sprague-Dawley rats (body weight 202±37 g; mean±SD) were injected with between 1 and 5 MBq of [^18F]-Compound 1 via a lateral tail vein. All animals were conscious, but lightly restrained during injection and subsequently housed in short-term metabolism cages. At the appropriate time point; 30 seconds, 2, 10, 30 and 60 minutes post-injection (pi) (n=3 per time point), the animals were sacrificed by cervical dislocation. The brain and peripheral tissues or fluids were sampled post-mortem. Radioactivity in the brain samples was measured using a Wallac gamma counter. Once assayed, the brain samples, along with the remaining organ or tissue samples were assayed using a twin-crystal gamma-counter system (BASIL), with automatic correction for radioactive decay.
The biodistribution protocol described in Example 6 for Compound 1 was used to assess Compound 2.

For series [3], the system named is GABAA receptor. The note with it: cited from earlier work.

The values that follow come from patent publication US20120189547A1 (priority 2009, published 2012).

Structures are written as SMILES.

For the compound `CCOC(=O)c1ncn2c1CN(CC[18F])C(=O)c1cc(F)ccc1-2` [[18F]FEFMZ, [18F]fluoroethylflumazenil], the “Clearance following administration in vivo” value in series [1] (in vivo) is recorded as “too rapid”.

Consider `CCOC(=O)c1ncn2c1CN(C)C(=O)c1cc(OCC[18F])ccc1-2` [[18F]-Compound 1], for which, in series [2], the “Time at which regional differentiation remained apparent” value is 30 minutes pi; the “Time of peak whole brain uptake” value was 10 minutes pi; the “Whole brain uptake, peak” value is 0.9%; the “Clearance from whole brain after peak uptake” value was “slow with a decreasing rate”. Further, in series [2], the “Regional differentiation between GABA-rich and GABA-poor regions of the brain” value was “good”. Further, in series [2] (0.5 min), the Pituitary gland is reported as 0.60 (0.1) % id/g and the Thalamus is listed as 0.30 (0.11) % id/g. Moreover, in series [2] (2 min), the Pituitary gland is recorded as 0.69 (0.13) % id/g and the Thalamus is reported as 0.47 (0.07) % id/g. Further, in series [2] (10 min), the Pituitary gland is 0.55 (0.10) % id/g and the Thalamus is recorded as 0.39 (0.05) % id/g. Further, in series [2] (30 min), the Pituitary gland is on record as 0.30 (0.02) % id/g and the Thalamus was 0.24 (0.05) % id/g. For the same compound, in series [2] (60 min), the Pituitary gland is reported as 0.26 (0.08) % id/g and the Thalamus is 0.20 (0.07) % id/g. Moreover, in series [2] (0.5 min post-injection), the Cerebellum is 0.28 (0.06) % id/g, the Hippocampus was 0.26 (0.08) % id/g, the Pons/Medulla is recorded as 0.23 (0.04) % id/g and the Pre-frontal cortex is 0.33 (0.1) % id/g. In series [2] (0.5 min post-injection), the Striatum is 0.26 (0.07) % id/g and the “Pre-frontal cortex: thalmus” value worked out at 1.13. Further, in series [2] (2 min post-injection), the Cerebellum is given as 0.43 (0.03) % id/g, the Hippocampus is 0.43 (0.06) % id/g, the Pons/Medulla is reported as 0.34 (0.02) % id/g and the Pre-frontal cortex is on record as 0.57 (0.02) % id/g. In addition, in series [2] (2 min post-injection), the Striatum is on record as 0.41 (0.04) % id/g and the “Pre-frontal cortex: thalmus” value came to 1.23. Further, in series [2] (10 min post-injection), the Cerebellum is listed as 0.36 (0.05) % id/g, the Hippocampus was 0.43 (0.07) % id/g, the Pons/Medulla is on record as 0.28 (0.05) % id/g and the Pre-frontal cortex is reported as 0.53 (0.09) % id/g. Moreover, in series [2] (10 min post-injection), the Striatum is listed as 0.36 (0.04) % id/g and the “Pre-frontal cortex: thalmus” value is recorded as 1.35. Further, in series [2] (30 min post-injection), the Cerebellum is recorded as 0.23 (0.04) % id/g, the Hippocampus is listed as 0.32 (0.05) % id/g, the Pons/Medulla was 0.18 (0.04) % id/g and the Pre-frontal cortex is 0.35 (0.07) % id/g. Further, in series [2] (30 min post-injection), the Striatum is 0.21 (0.04) % id/g and the “Pre-frontal cortex: thalmus” value stood at 1.44. Besides, in series [2] (60 min post-injection), the Cerebellum is given as 0.20 (0.05) % id/g, the Hippocampus is on record as 0.26 (0.07) % id/g, the Pons/Medulla is listed as 0.19 (0.05) % id/g and the Pre-frontal cortex is 0.24 (0.06) % id/g. Also, in series [2] (60 min post-injection), the Striatum was 0.18 (0.04) % id/g and the “Pre-frontal cortex: thalmus” value was 1.21.

For the compound `CN1Cc2c(C(=O)OCC[18F])ncn2-c2ccc(F)cc2C1=O` [[18F]FFMZ, [18F]fluoroflumazenil], the “Selective binding to GABAA receptors” value in series [3] (reported in prior art) is given as “high selective binding”. The Brain uptake result in series [1] (reported in prior art) is listed as “high”.

For the compound `CN1Cc2c(C(=O)OC(C)(C)C)ncn2-c2ccc(OCC[18F])cc2C1=O` [[18F]-Compound 2], in series [2], the “Time at which regional differentiation remained apparent” value is recorded as 10 minutes pi; the “Time of peak whole brain uptake” value was 2 minutes pi; the “Whole brain uptake, peak” value was 0.82%; the “Clearance from whole brain after peak uptake” value is reported as “slow with a decreasing rate”. The “Regional differentiation between GABA-rich and GABA-poor regions of the brain” value in series [2] is recorded as “good”. Besides, in series [2] (0.5 min), the Pituitary gland is listed as 0.82 (0.21) % id/g and the Thalamus is listed as 0.67 (0.12) % id/g. In addition, in series [2] (2 min), the Pituitary gland was 1.07 (0.19) % id/g and the Thalamus is reported as 0.78 (0.20) % id/g. Moreover, in series [2] (10 min), the Pituitary gland is listed as 0.69 (0.11) % id/g and the Thalamus is given as 0.69 (0.12) % id/g. In series [2] (30 min), the Pituitary gland is given as 0.64 (0.04) % id/g and the Thalamus was 0.62 (0.12) % id/g. For the same compound, in series [2] (60 min), the Pituitary gland is recorded as 0.51 (0.04) % id/g and the Thalamus was 0.49 (0.02) % id/g. Besides, in series [2] (0.5 min post-injection), the Cerebellum is listed as 0.75 (0.10) % id/g, the Hippocampus is on record as 0.63 (0.08) % id/g, the Pons/Medulla is 0.58 (0.09) % id/g and the Pre-frontal cortex is recorded as 0.80 (0.05) % id/g. Also, in series [2] (0.5 min post-injection), the Striatum was 0.63 (0.05) % id/g and the “Pre-frontal cortex: thalmus” value was determined as 1.22. In series [2] (2 min post-injection), the Cerebellum is listed as 0.82 (0.19) % id/g, the Hippocampus is reported as 0.89 (0.20) % id/g, the Pons/Medulla is recorded as 0.61 (0.14) % id/g and the Pre-frontal cortex was 1.07 (0.29) % id/g. In addition, in series [2] (2 min post-injection), the Striatum is recorded as 0.71 (0.16) % id/g and the “Pre-frontal cortex: thalmus” value is 1.36. In addition, in series [2] (10 min post-injection), the Cerebellum is 0.74 (0.08) % id/g, the Hippocampus was 0.94 (0.06) % id/g, the Pons/Medulla is 0.56 (0.09) % id/g and the Pre-frontal cortex was 1.04 (0.15) % id/g. Besides, in series [2] (10 min post-injection), the Striatum is recorded as 0.61 (0.10) % id/g and the “Pre-frontal cortex: thalmus” value came to 1.51. Further, in series [2] (30 min post-injection), the Cerebellum was 0.59 (0.06) % id/g, the Hippocampus is 0.75 (0.03) % id/g, the Pons/Medulla was 0.52 (0.05) % id/g and the Pre-frontal cortex was 0.75 (0.06) % id/g. For the same compound, in series [2] (30 min post-injection), the Striatum is 0.55 (0.096) % id/g and the “Pre-frontal cortex: thalmus” value was 1.23. Besides, in series [2] (60 min post-injection), the Cerebellum is on record as 0.47 (0.02) % id/g, the Hippocampus was 0.53 (0.01) % id/g, the Pons/Medulla is 0.45 (0.02) % id/g and the Pre-frontal cortex was 0.51 (0.03) % id/g. Also, in series [2] (60 min post-injection), the Striatum is 0.45 (0.02) % id/g and the “Pre-frontal cortex: thalmus” value stood at 1.05.

As usually defined, the Ki is the equilibrium dissociation constant of an inhibitor or competing ligand from its target. `CCOC(=O)c1ncn2c1CN(C)C(=O)c1cc([18F])ccc1-2` [[18F]FMZ, [18F]flumazenil]: the Ki in series [3] (prior art statement) is about 500 pM.
